# Results reported in ChEMBL document CHEMBL4411307, “N,N'-diaryl-bishydrazones in a biphenyl platform: Broad spectrum antifungal agents” (Eur J Med Chem, 2019).
# Activity calls are given as the source filed them. The rule behind the calls is not given here.
# Columns and labels:
# [1] = Selectivity index, ratio of compound concentration showing <20 to <30% hemolysis in mouse RBC to MIC for fluconazole/ITC-resistant Candida albicans ATCC 10231; type: toxicity; conditions: red blood cells (erythrocytes), read-out: Selectivity Index
# [2] = Hemolytic activity in mouse RBC at […] ug/ml after 1 hr relative to control; type: ADME, cell-based, Erythrocyte; conditions: red blood cells (erythrocytes), read-out: Activity
# [3] = Selectivity index, ratio of compound concentration showing <20 to <30% hemolysis in mouse RBC to MIC for Candida parapsilosis ATCC 22019; type: toxicity; conditions: mouse red blood cells (RBC), read-out: Selectivity Index
# [4] = Selectivity index, ratio of CC50 for human A549 cells to MIC for fluconazole/ITC-susceptible Candida albicans ATCC MYA-2310; type: toxicity; conditions: read-out: Selectivity Index
# [5] = Selectivity index, ratio of CC50 for human A549 cells to MIC for Aspergillus terreus ATCC MYA-3633; type: toxicity; conditions: read-out: Selectivity Index
# Listeria monocytogenes = experiment: Antibacterial activity against Listeria monocytogenes; type: functional, organism-based
# [6] = Hemolytic activity in mouse RBC at 7.8 ug/ml after 1 hr relative to control; type: ADME, cell-based, Erythrocyte; conditions: red blood cells (erythrocytes), read-out: Activity
# Candida parapsilosis = experiment: Antifungal activity against Candida parapsilosis ATCC 22019 measured after 48 hrs by CLSI M27-A3 protocol based method; type: functional; conditions: Lodderomyces parapsilosis, ATCC 22019, 48 h
# [7] = Hemolytic activity in mouse RBC at 62.5 ug/ml after 1 hr relative to control; type: ADME, cell-based, Erythrocyte; conditions: red blood cells (erythrocytes), read-out: Activity
# [8] = Selectivity index, ratio of compound concentration showing <20 to <30% hemolysis in mouse RBC to MIC for Aspergillus terreus ATCC MYA-3633; type: toxicity; conditions: mouse red blood cells (RBC), read-out: Selectivity Index
# [9] = Selectivity index, ratio of CC50 for human A549 cells to MIC for fluconazole/ITC-resistant Candida albicans ATCC 64124; type: toxicity; conditions: read-out: Selectivity Index
# [10] = Selectivity index, ratio of CC50 for human A549 cells to MIC for Candida krusei ATCC 6258; type: toxicity; conditions: read-out: Selectivity Index
# [11] = Hemolytic activity in mouse RBC at 1.95 ug/ml after 1 hr relative to control; type: ADME, cell-based, Erythrocyte; conditions: red blood cells (erythrocytes), read-out: Activity
# [12] = Hemolytic activity in mouse RBC at 3.9 ug/ml after 1 hr relative to control; type: ADME, cell-based, Erythrocyte; conditions: red blood cells (erythrocytes), read-out: Activity
# A549 = experiment: Cytotoxicity against human A549 cells after 24 hrs by resazurin based assay; type: cell-based; conditions: a549, 24 h
# Candida albicans [13] = experiment: Antifungal activity against fluconazole/ITC-resistant Candida albicans ATCC 64124 measured after 48 hrs by CLSI M27-A3 protocol based method; type: functional; conditions: ATCC 64124, 48 h
# Aspergillus flavus = experiment: Antifungal activity against Aspergillus flavus ATCC MYA-3631 measured after 48 hrs by CLSI M38-A2 protocol based method; type: functional; conditions: ATCC MYA-3631, 48 h
# Nakaseomyces glabratus = experiment: Antifungal activity against Candida glabrata ATCC 2001 measured after 48 hrs by CLSI M27-A3 protocol based method; type: functional; conditions: CBS 138, 48 h
# [14] = Selectivity index, ratio of compound concentration showing <20 to <30% hemolysis in mouse RBC to MIC for Candida glabrata ATCC 2001; type: toxicity; conditions: mouse red blood cells (RBC), read-out: Selectivity Index
# [15] = Selectivity index, ratio of compound concentration showing <20 to <30% hemolysis in mouse RBC to MIC for fluconazole/ITC-resistant Candida albicans ATCC MYA-1003; type: toxicity; conditions: mouse red blood cells (RBC), read-out: Selectivity Index
# Candida albicans [16] = experiment: Antifungal activity against fluconazole/ITC-resistant Candida albicans ATCC MYA-1003 measured after 48 hrs by CLSI M27-A3 protocol based method; type: functional; conditions: ATCC MYA-1003, 48 h
# [17] = Selectivity index, ratio of compound concentration showing <20 to <30% hemolysis in mouse RBC to MIC for Aspergillus nidulans ATCC 38163; type: toxicity; conditions: mouse red blood cells (RBC), read-out: Selectivity Index
# [18] = Selectivity index, ratio of CC50 for human A549 cells to MIC for Aspergillus nidulans ATCC 38163; type: toxicity; conditions: read-out: Selectivity Index
# [19] = Selectivity index, ratio of compound concentration showing <20 to <30% hemolysis in mouse RBC to MIC for Candida krusei ATCC 6258; type: toxicity; conditions: mouse red blood cells (RBC), read-out: Selectivity Index
# Aspergillus terreus = experiment: Antifungal activity against Aspergillus terreus ATCC MYA-3633 measured after 48 hrs by CLSI M38-A2 protocol based method; type: functional; conditions: ATCC MYA-3633, 48 h
# Enterococcus = experiment: Antibacterial activity against vancomycin-resistant Enterococcus; type: functional, organism-based
# Candida albicans [20] = experiment: Antifungal activity against fluconazole/ITC-resistant Candida albicans ATCC 10231 measured after 48 hrs by CLSI M27-A3 protocol based method; type: functional; conditions: ATCC 10231, 48 h
# Pichia kudriavzevii = experiment: Antifungal activity against Candida krusei ATCC 6258 measured after 48 hrs by CLSI M27-A3 protocol based method; type: functional; conditions: ATCC 6258, 48 h
# [21] = Selectivity index, ratio of compound concentration showing <20 to <30% hemolysis in mouse RBC to MIC for Aspergillus flavus ATCC MYA-3631; type: toxicity; conditions: mouse red blood cells (RBC), read-out: Selectivity Index
# [22] = Selectivity index, ratio of compound concentration showing <20 to <30% hemolysis in mouse RBC to MIC for fluconazole/ITC-susceptible Candida albicans ATCC MYA-2876; type: toxicity; conditions: red blood cells (erythrocytes), read-out: Selectivity Index
# [23] = Hemolytic activity in mouse RBC at […] after 1 hr relative to control; type: ADME, cell-based, Erythrocyte; conditions: red blood cells (erythrocytes), read-out: Activity; also: tested at 0.48 µg/mL
# [24] = Selectivity index, ratio of CC50 for human A549 cells to MIC for fluconazole/ITC-resistant Candida albicans ATCC MYA-1237; type: toxicity; conditions: read-out: Selectivity Index
# [25] = Selectivity index, ratio of CC50 for human A549 cells to MIC for Candida parapsilosis ATCC 22019; type: toxicity; conditions: read-out: Selectivity Index
# Candida albicans [26] = experiment: Antifungal activity against fluconazole/ITC-susceptible Candida albicans ATCC MYA-2310 measured after 48 hrs by CLSI M27-A3 protocol based method; type: functional; conditions: ATCC MYA-2310, 48 h
# Candida albicans [27] = experiment: Antifungal activity against fluconazole/ITC-resistant Candida albicans ATCC 90819 measured after 48 hrs by CLSI M27-A3 protocol based method; type: functional; conditions: ATCC 90819, 48 h
# [28] = Selectivity index, ratio of CC50 for human A549 cells to MIC for fluconazole/ITC-susceptible Candida albicans ATCC MYA-2876; type: toxicity; conditions: read-out: Selectivity Index
# [29] = Selectivity index, ratio of CC50 for human A549 cells to MIC for fluconazole/ITC-resistant Candida albicans ATCC MYA-1003; type: toxicity; conditions: read-out: Selectivity Index
# [30] = Selectivity index, ratio of CC50 for human A549 cells to MIC for Candida glabrata ATCC 2001; type: toxicity; conditions: read-out: Selectivity Index
# Staphylococcus aureus = experiment: Antibacterial activity against methicillin-resistant Staphylococcus aureus; type: functional, organism-based
# [31] = Hemolytic activity in mouse RBC at 31.3 ug/ml after 1 hr relative to control; type: ADME, cell-based, Erythrocyte; conditions: red blood cells (erythrocytes), read-out: Activity
# Candida albicans [32] = experiment: Antifungal activity against fluconazole/ITC-susceptible Candida albicans ATCC MYA-2876 measured after 48 hrs by CLSI M27-A3 protocol based method; type: functional; conditions: ATCC MYA-2876, 48 h
# BEAS-2B = experiment: Cytotoxicity against human BEAS2B cells after 24 hrs by resazurin based assay; type: cell-based
# [33] = Selectivity index, ratio of compound concentration showing <20 to <30% hemolysis in mouse RBC to MIC for fluconazole/ITC-resistant Candida albicans ATCC 90819; type: toxicity; conditions: red blood cells (erythrocytes), read-out: Selectivity Index
# Aspergillus nidulans = experiment: Antifungal activity against Aspergillus nidulans ATCC 38163 measured after 48 hrs by CLSI M38-A2 protocol based method; type: functional; conditions: ATCC 38163, 48 h
# [34] = Selectivity index, ratio of compound concentration showing <20 to <30% hemolysis in mouse RBC to MIC for fluconazole/ITC-susceptible Candida albicans ATCC MYA-2310; type: toxicity; conditions: mouse red blood cells (RBC), read-out: Selectivity Index
# [35] = Selectivity index, ratio of compound concentration showing <20 to <30% hemolysis in mouse RBC to MIC for fluconazole/ITC-resistant Candida albicans ATCC MYA-1237; type: toxicity; conditions: mouse red blood cells (RBC), read-out: Selectivity Index
# [36] = Selectivity index, ratio of compound concentration showing <20 to <30% hemolysis in mouse RBC to MIC for fluconazole/ITC-resistant Candida albicans ATCC 64124; type: toxicity; conditions: red blood cells (erythrocytes), read-out: Selectivity Index
# Candida albicans [37] = experiment: Antifungal activity against fluconazole/ITC-resistant Candida albicans ATCC MYA-1237 measured after 48 hrs by CLSI M27-A3 protocol based method; type: functional; conditions: ATCC MYA-1237, 48 h
# [38] = Selectivity index, ratio of CC50 for human A549 cells to MIC for fluconazole/ITC-resistant Candida albicans ATCC 90819; type: toxicity; conditions: read-out: Selectivity Index
# [39] = Selectivity index, ratio of CC50 for human A549 cells to MIC for fluconazole/ITC-resistant Candida albicans ATCC 10231; type: toxicity; conditions: read-out: Selectivity Index
compound,measurement,setting,value
Fc1ccc(N/N=C/c2ccc(-c3ccc(/C=N/Nc4ccc(F)cc4)cc3)cc2)cc1,selectivity ratio,[1],1 to 32
same,"hemolysis at 1 h, 15.6 ug/ml",[2]; at 15.6 µg/mL,9%
same,"hemolysis at 1 h, 0.975 ug/ml",[2],0%
same,selectivity ratio,[3],1 to 32
same,selectivity ratio,[4],1.1
same,selectivity ratio,[5],0.6
same,Activity,Listeria monocytogenes,inactive
same,"hemolysis at 1 h, 7.8 ug/ml",[6],3.2%
same,MIC,Candida parapsilosis,31.3 µg/mL
same,"hemolysis at 1 h, 62.5 ug/ml",[7],28.3%
same,selectivity ratio,[8],1 to 32
same,selectivity ratio,[9],1.1
same,selectivity ratio,[10],9.1
same,"hemolysis at 1 h, 1.95 ug/ml",[11],1.1%
same,"hemolysis at 1 h, 3.9 ug/ml",[12],0.7%
same,CC50,A549,17.7 µg/mL
same,MIC,Candida albicans [13],15.6 µg/mL
same,MIC,Aspergillus flavus,7.8 µg/mL
same,MIC,Nakaseomyces glabratus,15.6 µg/mL
same,selectivity ratio,[14],1 to 32
same,selectivity ratio,[15],1 to 32
same,MIC,Candida albicans [16],7.8 µg/mL
same,selectivity ratio,[17],1 to 32
same,selectivity ratio,[18],2.3
same,selectivity ratio,[19],1 to 32
same,MIC,Aspergillus terreus,> 31.3 µg/mL
same,Activity,Enterococcus,inactive
same,MIC,Candida albicans [20],7.8 µg/mL
same,MIC,Pichia kudriavzevii,1.95 µg/mL
same,selectivity ratio,[21],1 to 32
same,selectivity ratio,[22],1 to 32
same,"hemolysis at 1 h, […]",[23],0%
same,selectivity ratio,[24],2.3
same,selectivity ratio,[25],0.6
same,MIC,Candida albicans [26],15.6 µg/mL
same,MIC,Candida albicans [27],31.3 µg/mL
same,selectivity ratio,[28],2.3
same,selectivity ratio,[29],2.3
same,selectivity ratio,[30],1.1
same,Activity,Staphylococcus aureus,inactive
same,"hemolysis at 1 h, 31.3 ug/ml",[31],9.6%
same,MIC,Candida albicans [32],7.8 µg/mL
same,CC50,BEAS-2B,8.5 µg/mL
same,selectivity ratio,[33],1 to 32
same,MIC,Aspergillus nidulans,7.8 µg/mL
same,selectivity ratio,[34],1 to 32
same,selectivity ratio,[35],1 to 32
same,selectivity ratio,[36],1 to 32
same,MIC,Candida albicans [37],7.8 µg/mL
same,selectivity ratio,[38],0.6
same,selectivity ratio,[39],2.3
